{"source": "patent US11325937B2", "about": "“Glycoside compound and preparation method therefor, composition, application, and intermediate” (SHANGHAI HUTCHISON PHARMACEUTICALS LIMITED, priority 2018, dated 2022)", "key": {"[1]": {"tested_on": "HUVEC-12 endothelial cells", "experiment": "Tubule formation of HUVEC-12 endothelial cells (Matrigel)", "format": "cell-based, Human", "conditions": "direct treatment of HUVEC-12, 3 h; compounds 10 μM, VEGF165 10 ng/mL; vs control medium", "protocol": "(§1) The experiment included seven groups. In Group 1, HUVEC-12 endothelial cells (purchased from Shanghai RongChuang Biotech Co., Ltd.) were treated directly with simple DMEM medium (Gibcol, Shanghai) containing 10% FBS (SERANA, Germany) (control). In Group 2, the endothelial cells were treated with the supernatant obtained 24 h after macrophages were cultured with DMEM medium containing 10% FBS (s-control). In Group 3, the endothelial cells cultured with DMEM medium containing 10% FBS were treated directly with TG-028 (TG-028, 10 μM). In Group 4, the endothelial cells were treated with the supernatant obtained after macrophages cultured with DMEM medium containing 10% FBS were treated and co-incubated with TG-028 for 24 h (s-TG-028, […]). In Group 5, the endothelial cells cultured with DMEM medium containing 10% FBS were treated directly with Cpd-18 (Salvianolate) (cpd-18, 10 μM). In Group 6, the endothelial cells were treated with the supernatant obtained after macrophages cultured with DMEM medium containing 10% FBS were treated and co-incubated with Cpd-18 (Salvianolate, 10 μM) for 24 h (s-cpd18). In Group 7, the endothelial cells cultured with DMEM medium containing 10% FBS were treated directly with VEGFD (Recombinant Human VEGF165, 10 ng/mL).\nA 96-well plate and sterile yellow pipette tip were stored overnight in a refrigerator at −20° C. The packed Matrigel was thawed overnight in a refrigerator at 4° C. before the experiment. On the following day, the Matrigel thawed was centrifuged for a few minutes. 60 μL per well of the pre-cooled Matrigel was added to a 96-well plate in an ice bath on a ultra-clean bench, and then allowed to stand in an incubator for 1 h. After Matrigel was solidified, HUVEC-12 cells in logarithmic growth phase were taken and adjusted for the cell density. The cells were well mixed with each group of medium at a density of 5×10^4 cells/well and inoculated into a 96-well plate. […] The tube-like structure was analyzed by ImageJ image-analysis software, and the tube formation ability was evaluated using number of master junction as a quantitative index."}, "[2]": {"tested_on": "HUVEC-12 endothelial cells", "experiment": "Migration of HUVEC-12 endothelial cells (scratch test)", "format": "cell-based, Human", "conditions": "direct treatment of HUVEC-12, 24 h; compounds 10 μM, VEGF165 10 ng/mL; vs control medium", "protocol": "as §1\nHuman umbilical vein endothelial cells HUVEC-12 in logarithmic growth phase were counted, adjusted to a cell density of 5×10^5 cells/mL, and inoculated in 1 mL per well in a 6-well plate. The cells were conventionally cultured in an incubator to form monolayer cells of 90% confluency. The 6-well plate fully plated with cells was scratched perpendicular to the cell surface with a 200 μL pipette tip from one end to the other end of the well. The scratches were made transversely with the pipette tip being as perpendicular as possible to the bottom of the plate. […]\nThe medium was aspirated and the cells scratched off were washed off with PBS. […] The migration of endothelial cells was detected according to the cell scratch method and the relative migration rate was calculated. […]"}, "[3]": {"tested_on": "rats with middle cerebral artery occlusion (MCAO)", "experiment": "Acute cerebral infarction model in rats with middle cerebral artery occlusion (MCAO)", "format": "in vivo, male SD rats", "conditions": "MCAO, after 3 days, FIGS. 11-13", "excerpt": "After obtaining the active molecules that can promote the expression of VEGF-A mRNA in the animal model of inflammatory angiogenesis, a rat model of cerebral infarction was used for further verification. Following the method as described in Longa, E. Z., Longa, E. Z., Weinstein, P. R., Carlson, S. & Commin, R. Reversible middle cerebral artery occlusion without craniectomy in rats. [J]. Stroke, 1989. 1: 84-91, an acute cerebral infarction model was established in rats with middle cerebral artery occlusion (MCAO); and following the method as described in C. dela Torre, T. Fortin, G. A. S. Park, K. S. Butler, P. Kozlowski, B. A. Pappas, H. de Socarraz, J. K. Saunders and M. T. Richard. [J]. Brain Research, 1992. 582:186-195, a chronic cerebral ischemia model was established in rats with permanent ligation of bilateral common carotid arteries (2VO). The inhibition on cerebral infarction and neuroprotection for brain injury of the active molecules screened in Effect Example 2 were verified.\nThe control drugs were: Edaravone (purchased from Zhejiang Shengtong Biotechnology Co., Ltd.), Clopidogrel bisulfate (purchased from Wuhan Yuancheng Gongchuang Technology Co., Ltd.), and Salvianolate (purchased from Henan Provincial People's Hospital). Clopidogrel bisulfate is a platelet aggregation inhibitor, and Edaravone is a brain protectant (free radical scavenger). The MCAO model of rats was made by the thread occlusion method. The rats used in this effect example were male SD rats weighing 280-320 grams, purchased from Shanghai SLAC Laboratory Animal Co., Ltd. Five SD (Sprague Dawley) rats in each group were administered by intraperitoneal injection, 2 h before surgery, and every 24 h after modeling.\nThree days later, the brain was taken, and the rat brain was stained with TTC (2,3,5-triphenyltetrazolium chloride, to detect the cell viability) and then photographed. Infarction rate (%)=(Non-infarction area of right brain section−non-infarction area of left brain section)/total area of brain section*100%. According to t tests, *P<0.05, **P<0.01, ***P<0.001 compared with the model group (MCAO). Infarction inhibition rate (%) at different doses=(infarction rate of model group-infarction rate of treatment group)/infarction rate of model group*100%. The infarction inhibition rate at different doses was plotted, and the ED50 of the drug was calculated.\nMoreover, the body weight of the rats was recorded. The rate of body weight change was calculated according to a formula: Rate of body weight change (%)=(final weight-initial weight)/[…].\nThree days after the acute cerebral infarction model was established in rats with MCAO, the test rats were scored for neurological function according to the Longa nerve scoring standard.\nThree days after the acute cerebral infarction model of MCAO was established in rats, the intact brain tissue was taken out, olfactory bulb and the brain tissue that is 4 mm in front of the frontal pole was removed, and the immediately adjacent brain tissue of 2 mm thick was taken for water content measurement in the brain. The water content in brain tissue is calculated by the formula: (WW−DW)/WW×100%, where WW is the wet weight and DW is the dry weight. Three days after the acute cerebral infarction model of MCAO was established in rats, the brain tissue was stained with Evans Blue (EB, a commonly used azo dye preparation) to evaluate the permeability across the blood-brain barrier (BBB), so as to evaluate the integrity of blood-brain barrier. Both experiments were tested with the optimal dose of each drug previously determined: TG-028 (5 mg/Kg), Salvianolate (20 mg/Kg), Clopidogrel bisulfate (40 mg/Kg), Edaravone (40 mg/Kg)."}}}
{"substance": "VEGF", "values": [{"measurement": "effect on tube formation of endothelial cells (in words)", "setting": "[1]", "result": "significant effect on the tube formation of endothelial cells"}, {"measurement": "effect on migration of endothelial cells (in words)", "setting": "[2]", "result": "significant effect on the migration of endothelial cells"}, {"measurement": "inhibitory effect on cerebral infarction (in words)", "setting": "[3]", "result": "can inhibit cerebral infarction in rats"}]}
